From US10028961B2, “Therapeutically active compounds and their methods of use” (AGIOS PHARMACEUTICALS, INC., priority 2013, dated 2018)

Columns and labels:
[1] = tested on: U87MG pLVX-IDH2 R140Q-neo cells; experiment: U87MG pLVX-IDH2 R140Q-neo cell based assay, 2-HG by LC-MS; settings: Homo sapiens, U-87 MG
[2] = target: IDH1 wt/IDH1 R132C heterodimer (Homo sapiens (Human), UniProt O75874, R132C); experiment: In vitro assay for IDH1m R132C inhibitors, IDH1 wt/IDH1 R132C heterodimer, NADPH depletion (diaphorase/resazurin); assay type: biochemical; settings: NADPH/NADP
Method: The following describes the experimental procedures that can be used to obtain data on columns 2 and 4 of Table 4 and column 2 of Table 5.
In the primary reaction, the reduction of α-KG acid to 2-HG is accompanied by a concomitant oxidation of NADPH to NADP. The amount of NADPH remaining at the end of the reaction time is measured in a secondary diaphorase/resazurin reaction in which the NADPH is consumed in a 1:1 molar ratio with the conversion of resazurin to the highly fluorescent resorufin.
The mixture of compound, enzyme, and cofactor is pre-incubated at room temperature for 1 hr prior to the addition of alpha-ketoglutarate. To perform the secondary reaction, 10 uL of 1× buffer containing 36 μg/ml diaphorase and […] resazurin is added to the primary reaction and incubated for a further 5 minutes at 25° C. Florescence is read on a Spectramax platereader at Ex 544 Em 590. Compounds or compound dilutions are prepared in 100% DMSO concentration and diluted 1:50 into the final reaction. […] IC50s are determined.
IDH1 or IDH2 wildtype (wt) and mutant heterodimers are expressed and purified by methods known in the art. For example, IDH1wt/R132m heterodimer is expressed and purified as follows. Co-expression of IDH1wt-his and IDH1R132C-flag is carried out in sf9 insect cells. Cells (25 g) are resuspended in 250 ml of 50 mM Tirs, 500 mM NaCl, pH7.4, at 4° C. with stirring. Cells are disrupted with 4 passes through an M-Y110 Micro fluidizer (Microfluidics) set to 500 psi, and then centrifuged at 22,000 rcf for 20 min at 4° C. The supernatant is harvested and loaded at 15 cm/h on a Histrap FF 5*1 ml column (GE) which is equilibrated with 50 mM Tirs, 500 mM NaCl, pH7.4. Host cell contaminants are removed by washing the column with equilibration buffer followed by equilibration buffer containing 20 mM imidazole and 60 mM imidazole to baseline. IDH1wt-his homodimer and IDH1wt-his/IDH1R132C-flag are eluted by equilibration buffer containing 250 mM imidazole. Fractions eluted by 250 mM imidazole are pooled together and loaded at 15 cm/h onto a column pre-packed with 10 ml ANTI-FLAG® M2 Affinity Gel (Sigma), the column is equilibrated with 50 mM Tris, 500 mM NaCl, pH7.4. After washing with equilibration buffer, IDH1wt-his/IDH1R132C-flag heterodimer is eluted by equilibration buffer containing flag peptide (0.2 mg/ml). Aliquots of IDH1wt-his/IDH1R132C-flag are flash frozen in liquid N2 and stored at −80° C. Same conditions are used for the purification of IDH1wt-his/IDH1R132H-flag.

[3] = tested on: Neurosphere cells (TS603); experiment: Cellular assay for IDH1m R132H inhibitors, 2-HG by LC-MS in neurosphere cells (TS603); assay type: cell-based; settings: 2-HG in media at 48 hours
Summary of the method: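 TS603 neurosphere cells in NeuroCult medium were dosed with compound (0.25% DMSO final) at 37 C, 5% CO2. After 48 hours, medium 2-HG was measured by LC-MS. At 72 hours, viability was read by CellTiter-Glo luminescence.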

[4] = target: IDH1-R132H homodimer enzyme (Homo sapiens (Human), UniProt O75874, R132H); experiment: In vitro assay IDH1-R132H homodimer, NADPH depletion assay with NADPH/NADP preincubation; assay type: biochemical; settings: 5 μM NADPH and 37.5 μM NADP
Summary of the method: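 Conversion of alpha-ketoglutarate to 2-hydroxyglutarate tracked by NADPH depletion. Reaction started with 5 mM alpha-ketoglutarate plus NADPH substrate mix (50 μl total), 60 min at room temperature. Leftover NADPH quantified via diaphorase/resazurin fluorescence.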

Chain of IDH1 wt/IDH1 R132C heterodimer (O75874 whole entry R132C): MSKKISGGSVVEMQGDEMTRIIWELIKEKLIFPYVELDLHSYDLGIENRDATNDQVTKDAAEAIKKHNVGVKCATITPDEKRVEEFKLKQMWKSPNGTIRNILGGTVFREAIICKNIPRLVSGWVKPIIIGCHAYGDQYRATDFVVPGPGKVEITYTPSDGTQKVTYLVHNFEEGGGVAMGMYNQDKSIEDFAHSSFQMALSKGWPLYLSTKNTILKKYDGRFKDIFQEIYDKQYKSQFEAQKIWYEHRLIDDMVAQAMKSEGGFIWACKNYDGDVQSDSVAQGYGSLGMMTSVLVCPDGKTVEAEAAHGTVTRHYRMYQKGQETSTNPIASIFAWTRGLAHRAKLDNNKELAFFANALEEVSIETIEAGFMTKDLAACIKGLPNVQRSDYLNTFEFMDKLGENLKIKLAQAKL
Chain of IDH1 wt/IDH1 R132C heterodimer (O75874 whole entry, stated change not applied): as the sequence (O75874 whole entry R132C) above, with C132R counted along it
Chain of IDH1-R132H homodimer enzyme (O75874 whole entry R132H): as the sequence (O75874 whole entry R132C) above, with C132H counted along it

| SMILES | IC50 [1] [nM] | IC50 [2] [nM] | IC50 [3] [nM] | IC50 [4] [nM] |
| --- | --- | --- | --- | --- |
| N#CC1(c2cc(Nc3nc(NC4CCC(F)(F)C4)nc(-c4nccc(C(F)(F)F)n4)n3)ccn2)CC1 (centres unmarked) [Compound 261] | < 50 | 50 to 100 | 50 to 100 | > 1000 |
| Fc1ccc([C@H]2C[C@@H](Nc3nc(N[C@H]4C[C@@H](c5ccc(F)cc5)C4)nc(-c4cccc(C(F)(F)F)n4)n3)C2)cc1 [Compound 272] | 100 to 1000 | 100 to 1000 | – | > 1000 |
| Fc1ccc([C@H]2C[C@@H](Nc3nc(NC4CCC(F)(F)C4)nc(-c4cccc(C(F)(F)F)n4)n3)C2)cc1 (some centres unmarked) [Compound 199] | < 50 | < 50 | < 50 | 100 to 1000 |
| FC1(F)CCC(Nc2nc(NC3CCN(Cc4ccccc4)C3)nc(-c3cccc(C(F)(F)F)n3)n2)C1 (centres unmarked) [Compound 280] | – | ≥ 1000 | – | > 1000 |
| C[C@@H](Nc1nc(N[C@H](C)C2CC2)nc(-c2nccc(C(F)(F)F)n2)n1)C1CC1 [Compound 268] | 50 to 100 | < 50 | < 50 | > 1000 |
| FC1(F)CCC(Nc2nc(NC3CCC(F)(F)CC3)nc(-n3ccc(C(F)(F)F)n3)n2)CC1 [Compound 176] | < 50 | < 50 | < 50 | 100 to 1000 |
| CC(CC#N)Nc1nc(Nc2ccnc(C(C)(F)F)c2)nc(-c2cccc(C(F)(F)F)n2)n1 (centres unmarked) [Compound 250] | < 50 | 100 to 1000 | < 50 | 100 to 1000 |
| FC1(F)CCC(Nc2nc(NC3Cc4ccc(Cl)cc4C3)nc(-c3cccc(C(F)(F)F)n3)n2)C1 (centres unmarked) [Compound 182] | < 50 | < 50 | < 50 | 100 to 1000 |
| FC1(F)CCC(Nc2nc(NC3Cc4ccccc4C3)nc(-c3cccc(C(F)(F)F)n3)n2)C1 (centres unmarked) [Compound 152] | < 50 | < 50 | < 50 | < 50 |
| N#CC1(c2cc(Nc3nc(NCC(F)(F)F)nc(-c4cccc(C(F)(F)F)n4)n3)ccn2)CC1 [Compound 226] | < 50 | 50 to 100 | < 50 | 100 to 1000 |
| O=C(c1ccccc1)N1CCC(Nc2nc(NC3CCC(F)(F)C3)nc(-c3cccc(C(F)(F)F)n3)n2)C1 (centres unmarked) [Compound 263] | – | 100 to 1000 | – | 100 to 1000 |
| CC(C)(O)CNc1nc(Nc2cc(F)cc(C#N)c2)nc(-c2cccc(C(F)(F)F)n2)n1 [Compound 244] | < 50 | 100 to 1000 | < 50 | – |
| CS(=O)(=O)N1CCC(Nc2nc(NC3CCC(F)(F)CC3)nc(-c3cccc(C(F)(F)F)n3)n2)CC1 [Compound 266] | – | 100 to 1000 | < 50 | > 1000 |
| CC(C)(C)Nc1nc(Nc2cc(F)cc(C#N)c2)nc(-c2nccc(C(F)(F)F)n2)n1 [Compound 245] | < 50 | 100 to 1000 | < 50 | – |
| FC1(F)CCC(Nc2nc(NC3CCOCC3)nc(-c3cccc(C(F)(F)F)n3)n2)CC1 [Compound 255] | – | 100 to 1000 | – | 100 to 1000 |
| CC(=O)N1CCC(Nc2nc(NC3CCC(F)(F)CC3)nc(-c3cccc(C(F)(F)F)n3)n2)CC1 [Compound 273] | – | 100 to 1000 | – | > 1000 |
| CC(C)(C)Nc1nc(Nc2cccc(C#N)c2)nc(-c2cccc(C(F)(F)F)n2)n1 [Compound 117] | < 50 | < 50 | – | – |

The next lines start with the values.

| IC50 [1] [nM] | IC50 [2] [nM] | IC50 [3] [nM] | IC50 [4] [nM] | SMILES |
| --- | --- | --- | --- | --- |
| < 50 | < 50 | < 50 | 100 to 1000 | FC1(F)CCC(Nc2nc(Nc3ccnc(C(F)(F)F)c3)nc(-c3cccc(C(F)(F)F)n3)n2)CC1 [Compound 192] |
| < 50 | 50 to 100 | < 50 | 100 to 1000 | CC(C)(C#N)Nc1nc(Nc2ccnc(C(C)(F)F)c2)nc(-c2cccc(C(F)(F)F)n2)n1 [Compound 247] |
| < 50 | 50 to 100 | < 50 | 100 to 1000 | FC1(F)CCC(Nc2nc(NC3CCC(F)(F)CC3)nc(-c3csc(C(F)(F)F)n3)n2)CC1 [Compound 223] |
| < 50 | < 50 | < 50 | 100 to 1000 | FC1(F)CC(Nc2nc(NC3CC(F)(F)C3)nc(-c3csc(C(F)(F)F)n3)n2)C1 [Compound 170] |
| < 50 | < 50 | < 50 | 50 to 100 | N#Cc1cc(F)cc(Nc2nc(NC3CCC(F)(F)CC3)nc(-c3cccc(C(F)(F)F)n3)n2)c1 [Compound 164] |
| < 50 | < 50 | < 50 | < 50 | N#CC1(c2cc(Nc3nc(NC4CCC(F)(F)C4)nc(-c4cccc(Cl)n4)n3)ccn2)CC1 (centres unmarked) [Compound 127] |
| < 50 | < 50 | < 50 | 50 to 100 | C[C@@H](Nc1nc(N[C@H](C)C2CC2)nc(-n2ccc(C(F)(F)F)n2)n1)C1CC1 [Compound 121] |
| < 50 | 50 to 100 | < 50 | 100 to 1000 | CC(C)(CC#N)Nc1nc(Nc2ccnc(C(C)(F)F)c2)nc(-c2cccc(C(F)(F)F)n2)n1 [Compound 231] |
| < 50 | < 50 | < 50 | < 50 | C[C@@H](Nc1nc(Nc2ccnc(C3(C#N)CC3)c2)nc(-c2cccc(Cl)n2)n1)C1CC1 [Compound 167] |
| < 50 | < 50 | < 50 | < 50 | N#Cc1cc(F)cc(Nc2nc(NC3CCC(F)(F)C3)nc(-c3cccc(C(F)(F)F)n3)n2)c1 (centres unmarked) [Compound 124] |
| < 50 | – | < 50 | < 50 | Fc1cc(F)cc(Nc2nc(NC3CC(F)(F)C3)nc(-n3ccc(C(F)(F)F)n3)n2)c1 [Compound 106] |
| < 50 | < 50 | < 50 | < 50 | FC1(F)CC(Nc2nc(NC3CC(F)(F)C3)nc(-c3cccc(C(F)(F)F)n3)n2)C1 [Compound 149] |
| < 50 | < 50 | < 50 | 50 to 100 | FC1(F)CCC(Nc2nc(Nc3ccnc(C(F)(F)F)c3)nc(-c3cccc(C(F)(F)F)n3)n2)C1 (centres unmarked) [Compound 178] |
| < 50 | < 50 | < 50 | < 50 | FC(F)c1cccc(-c2nc(NC3CC(F)(F)C3)nc(NC3CC(F)(F)C3)n2)n1 [Compound 145] |
| < 50 | – | < 50 | < 50 | N#CC1(c2cc(Nc3nc(NC4CC(F)(F)C4)nc(-c4cccc(C(F)(F)F)n4)n3)ccn2)CC1 [Compound 168] |
| < 50 | < 50 | < 50 | < 50 | Fc1cc(F)cc(Nc2nc(NC3CCC(F)(F)C3)nc(-c3cccc(C(F)(F)F)n3)n2)c1 (centres unmarked) [Compound 123] |
| < 50 | – | < 50 | 50 to 100 | FC1(F)CC[C@H](Nc2nc(Nc3ccnc(C(F)(F)F)c3)nc(-c3cncc(C(F)(F)F)n3)n2)C1 [Compound 391] |
| < 50 | – | < 50 | < 50 | FC1(F)CC(Nc2nc(NC3CC(F)(F)C3)nc(-c3cncc(C(F)(F)F)n3)n2)C1 [Compound 161] |
| < 50 | – | < 50 | < 50 | N#CC1(c2cc(Nc3nc(NC4CC(F)(F)C4)nc(-c4cncc(C(F)(F)F)n4)n3)ccn2)CC1 [Compound 401] |
| < 50 | – | < 50 | 50 to 100 | FC1(F)CCC(Nc2nc(NC3CCC(F)(F)CC3)nc(-c3cncc(C(F)(F)F)n3)n2)CC1 [Compound 160] |
| < 50 | – | < 50 | 50 to 100 | FC1(F)CCC(Nc2nc(Nc3ccnc(C(F)(F)F)c3)nc(-c3cncc(C(F)(F)F)n3)n2)CC1 [Compound 389] |
